From patent US20070093460A1, “Methods of using selective 11beta-HSD inhibitors to treat gluocorticoid associated states” (priority 2005, published 2007)
“Also recorded” adds a separate entry of the source. Read-outs that look alike come from different tables or passages of the source.

Columns and labels:
11β-HSD1 Dehydrogenase [1] = target: T1, 11β-HSD1 Dehydrogenase (Rattus norvegicus, UniProt P16232); assay: 11β-HSD1 dehydrogenase assay in rat Leydig cell homogenates; type: biochemical; parameters: Freshly prepared rat Leydig cell homogenates were chosen since they provide a rich and reliable source of both 11β-HSD1 dehydrogenase and reductase; from tissue; host or cells: rat testicular Leydig cells, homogenate; details: for inhibitors of 11β-HSD1 dehydrogenase (summary in words): summary of the screening;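 as to all read-outs here: tritiated corticosterone conversion by 11β-HSD1 dehydrogenase in Leydig homogenates with 3 mM NADP at pH 8.4, 37 °C for 10 min, products resolved by HPLC, inhibition relative to uninhibited enzyme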
11β-HSD2 = target: T2, 11β-HSD2 (Ovis aries, UniProt P50168); assay: 11β-HSD2 enzyme activity in sheep kidney microsomes; type: biochemical
T2 construct: incubating sheep kidney microsomal fraction (6.5 μg protein) with 50 nM corticosterone; from tissue; host or cells: sheep kidney microsomal fraction
T2 sequence (P50168 1-427): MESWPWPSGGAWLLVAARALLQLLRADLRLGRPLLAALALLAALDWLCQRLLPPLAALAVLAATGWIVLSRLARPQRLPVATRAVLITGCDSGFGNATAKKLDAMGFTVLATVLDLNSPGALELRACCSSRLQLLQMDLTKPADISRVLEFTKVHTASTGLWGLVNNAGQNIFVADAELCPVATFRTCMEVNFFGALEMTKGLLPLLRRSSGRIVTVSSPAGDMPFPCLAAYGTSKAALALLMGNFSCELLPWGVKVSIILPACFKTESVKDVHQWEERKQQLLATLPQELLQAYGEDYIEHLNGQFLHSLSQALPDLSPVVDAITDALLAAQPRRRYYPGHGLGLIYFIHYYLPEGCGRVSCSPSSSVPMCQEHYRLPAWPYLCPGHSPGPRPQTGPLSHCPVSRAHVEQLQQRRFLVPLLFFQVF
Source text: The enzymatic reaction was termninated by addition of methanol and synthesis of 11-dehydro-corticosterone was quantitated by HPLC as described above.

11β-HSD1 Reductase [2] = target: T3, 11β-HSD1 Reductase (Rattus norvegicus, UniProt P16232); assay: 11β-HSD1 reductase assay in rat Leydig cell homogenates; details: for inhibitors of 11β-HSD1 reductase (summary in words): summary of the screening;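 as to all read-outs here: rat Leydig cell homogenate incubated 20 min at 37 °C, pH 7.4, with tritiated 11-dehydro-corticosterone and 3 mM NADPH, product measured by HPLC, inhibition from triplicate dose–response curves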
11β-HSD1 Dehydrogenase [3] = target: T1, 11β-HSD1 Dehydrogenase; assay: Table 1: inhibition of 11β-HSD1 dehydrogenase; type: biochemical; details: Table 1, inhibition in words
11β-HSD1 Reductase [4] = target: T3, 11β-HSD1 Reductase; assay: Table 1: inhibition of 11β-HSD1 reductase; type: biochemical; details: Table 1, inhibition in words
11β-HSD2 Dehydrogenase = target: T4, 11β-HSD2 Dehydrogenase (Ovis aries, UniProt P50168); assay: Table 1: inhibition of 11β-HSD2 dehydrogenase; type: biochemical; details: Table 1, inhibition in words
T4 sequence (P50168 1-427): T2 sequence (P50168 1-427)

[5] = rat Leydig cell homogenates, 600 nM corticosterone, progesterone and androgen derivatives, read-out: Leydig Cell 11β-HSDl Dehydrogenase [S] = 600 nM
[6] = read-out: Leydig Cell 11β-HSD1 Reductase [S] = 600 nM, rat Leydig cell homogenates, 600 nM 11-dehydro-corticosterone, progesterone and androgen derivatives

T3 sequence (P16232 whole entry): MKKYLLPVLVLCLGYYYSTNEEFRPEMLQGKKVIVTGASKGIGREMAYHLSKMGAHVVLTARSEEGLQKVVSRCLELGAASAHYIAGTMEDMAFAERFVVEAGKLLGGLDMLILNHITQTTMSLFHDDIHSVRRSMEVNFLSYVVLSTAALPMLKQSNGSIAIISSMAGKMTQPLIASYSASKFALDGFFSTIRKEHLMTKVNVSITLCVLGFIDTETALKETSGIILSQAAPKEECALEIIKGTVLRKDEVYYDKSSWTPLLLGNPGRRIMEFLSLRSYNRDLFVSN
T1 sequence (P16232 whole entry): as above

| SMILES | IC50 (11β-HSD1 Dehydrogenase [1]; [5]) | IC50 (11β-HSD1 Reductase [2]; [6]) | IC50 (11β-HSD1 Dehydrogenase [1]) | IC50 (11β-HSD2) | 11β-HSD1 Dehydrogenase (11β-HSD1 Dehydrogenase [3]) | IC50 (11β-HSD1 Reductase [2]) | 11β-HSD1 Reductase (11β-HSD1 Reductase [4]) | other results |
| --- | --- | --- | --- | --- | --- | --- | --- | --- |
| C[C@]12CC[C@H](O)C[C@@H]1CC[C@H]1[C@@H]3CC[C@H](O)[C@@]3(C)CC(=O)[C@@H]12 [11 -Keto-3β,5α-TH-Testosterone] | 50 µM | 0.65 µM |  |  |  |  |  | Leydig Cell 11β-HSDl Dehydrogenase [S] = 600 nM (11β-HSD1 Dehydrogenase [1]; rat Leydig cell homogenates, 600 nM corticosterone, progesterone and androgen derivatives): weak inhibitor; IC50 (11β-HSD2; sheep kidney microsomes, corticosterone substrate, progesterone and androgen derivatives, read-out: Sheep kidney 11β-HSD2 [S] = 50 nM): 8 µM; inhibitors of 11β-HSD1 reductase (summary in words) (11β-HSD1 Reductase [2]; listed as 11-Keto-3β,5α-TH-Testosterone): potent inhibitors; inhibitors of 11β-HSD1 reductase (summary in words) (11β-HSD1 Reductase [2]; listed as 11-keto-3β,5α-TH-testosterone): high potency |
| C[C@]12CC[C@@H](O)C[C@H]1CC[C@@H]1[C@H]2C(=O)C[C@]2(C)C(=O)CC[C@@H]12 [11 -Keto-androsterone, 5α-Androstan-3a-ol-11,1 7-dione] |  |  | > 100 µM | > 10 µM | No Inhibition | > 100 µM | Selective Inhibitor |  |
| C[C@]12CC[C@@H](O)C[C@H]1CC[C@@H]1[C@@H]2C(=O)C[C@]2(C)C(=O)CC[C@@H]12 [11 -Keto-etiocholanolone] | > 100 µM | > 100 µM |  |  |  |  |  |  |
| CC(=O)[C@H]1CC[C@@H]2[C@@H]3CCC4=CC(=O)CC[C@]4(C)[C@@H]3[C@@H](O)C[C@]12C [11β-OH-Progesterone, 4-Pregnen-11β-ol-3,20-dione] | 5.6 µM |  |  |  | Potent Inhibitor (Non-Selective) | > 100 µM | No Inhibition | inhibitors of 11β-HSD1 dehydrogenase (summary in words) (11β-HSD1 Dehydrogenase [1]): potent inhibitors; also recorded: high potency; inhibitors of 11β-HSD1 dehydrogenase (summary in words) (11β-HSD1 Dehydrogenase [1]; listed as 11β-hydroxy-progesterone): potently inhibit; Leydig Cell 11β-HSD1 Reductase [S]= 600 nM (11β-HSD1 Reductase [2]; rat Leydig cell homogenates, 600 nM 11-dehydro-corticosterone, progesterone and androgen derivatives): inactive |
| C[C@]12CC[C@@H](O)C[C@@H]1CC[C@@H]1[C@@H]2[C@@H](O)C[C@]2(C)[C@@H](O)CC[C@@H]12 [11β-OH-androstanediol, 5α-Androstan-3α,11β,17β-triol] |  |  | 5 µM | 4.5 µM |  | 11.5 µM |  | inhibitors of 11β-HSD1 dehydrogenase (summary in words) (11β-HSD1 Dehydrogenase [1]): potent inhibitors; also recorded: high potency |
| C[C@]12CC[C@@H](O)C[C@@H]1CC[C@@H]1[C@@H]2[C@@H](O)C[C@]2(C)C(=O)CC[C@@H]12 [11β-OH-androsterone, 5α-Androstan-3ct,11β-diol-17-one] |  |  | > 100 µM | > 10 µM |  | > 100 µM |  |  |
| C[C@]12CC[C@@H](O)C[C@H]1CC[C@@H]1[C@@H]2[C@@H](O)C[C@]2(C)C(=O)CC[C@@H]12 [11β-OH-etiocholanolone] | > 100 µM | > 100 µM |  |  |  |  |  |  |
| CC(=O)[C@H]1CC[C@H]2[C@@H]3CC[C@@H]4C[C@H](O)CC[C@]4(C)[C@H]3[C@@H](O)C[C@]12C [11β-OH-pregnanolone, 5β-Pregnan-3α,11β-diol-20-one] |  |  | 30 µM | > 10 µM |  | 80 µM |  | Sheep kidney 11β-HSD2 [S] = 50 nM (11β-HSD2; sheep kidney microsomes, corticosterone substrate, progesterone and androgen derivatives): inactive |
| C[C@]12CCC(=O)C=C1CC[C@@H]1[C@@H]2[C@@H](O)C[C@]2(C=O)[C@@H](C(=O)CO)CC[C@@H]12 [Aldosterone, 4-Pregnen-11,21-diol-3,20-dione-18-al, reference compound] |  |  |  |  |  | > 100 µM |  | Leydig Cell 11β-HSD1 Dehydrogenase [S]= 600 nM (11β-HSD1 Dehydrogenase [1]; rat Leydig cell homogenates, 600 nM corticosterone, NADP, corticosteroid series): inactive; IC50 (11β-HSD1 Dehydrogenase [1]; rat Leydig cell homogenates, 600 nM corticosterone, NADP, corticosteroid series, read-out: Leydig Cell 11β-HSD1 Dehydrogenase [S]= 600 nM): > 100 µM; Dehydrogenase [S] = 50 nM (11β-HSD2; 11β-HSD2, sheep kidney microsomes, 50 nM corticosterone, NAD+, aldosterone, cortisol, corticosterone series): inactive; IC50 (11β-HSD2; 11β-HSD2, sheep kidney microsomes, 50 nM corticosterone, NAD+, aldosterone, cortisol, corticosterone series, read-out: Dehydrogenase [S] = 50 nM): > 10 µM; Leydig Cell 11β-HSD1 Reductase [S]= 600 nM (11β-HSD1 Reductase [2]; rat Leydig cell homogenates, 600 nM 11-dehydro-corticosterone, NADPH, corticosteroid series): inactive |
| C[C@H](CCC(=O)O)[C@H]1CC[C@H]2[C@@H]3[C@H](O)C[C@@H]4C[C@H](O)CC[C@]4(C)[C@H]3CC[C@]12C [chenodeoxycholic acid] |  |  |  |  | Selective inhibitor |  | No Inhibition | 11β-HSD2 Dehydrogenase (11β-HSD2 Dehydrogenase): No Inhibition |
